Key:
[1] = tested on: SMN2 promoter CRE sites 1 and 2; test: ChIP of Phospho-Elk-1 and Phospho-CREB on SMN2 promoter CRE sites in ventral lumbar spinal cord; type: in vivo, mice; conditions: SMA spinal cords, intrathecal NMDA
Description: The knockout-transgenic SMA-like mice (Smn^−/−, SMN2^+/+) were purchased from the Jackson Laboratory (Bar Harbor, Me.) and genotyped as previously described^15. Vehicle-treated group, NMDA-treated group, U0126-treated group and AZD6244-treated group of type 1 SMA-like mice were randomly constituted in a blind systematic manner to minimize bias. The control mice were heterozygous knock-out for Smn with the human SMN2 transgene (Smn^−/+, to SMN2^+/+).
In order to evaluate phospho-Elk-1 and phospho-CREB role on Smn2 promoter, P1 neonatal control and SMA-like mice, were either injected intrathecally with 5 pmol of N-methyl-D-aspartic Acid 100 μM (NMDA, Sigma, Saint Quentin Fallavier, France) in 0.5 μl/g of 0.9% NaCl dyed in blue Evans per gram. […]
Ventral lumbar Spinal Cord samples were chopped into small pieces with a scalpel and were fixed for 15 min with 1% formaldehyde. […] Lysates were cleared by centrifugation and DNA concentration was determined using a nanodrop spectrophotometer. […]
Quantitative real time PCR was performed with standard protocols using SYBR®Green ROX Mix (ABgene, Courtaboeuf, France) as a fluorescent detection dye in ABI PRISM® 7000 in a final volume of 10 μl which also contains 300 nM of primers (Operon, Cologne, Germany)
The relative amounts of DNA in samples were determined on the basis of the threshold cycle for each PCR product (Ct).

[2] = tested on: SMN transcripts; conditions: very severe SMA-like mice; splicing pattern not modified; cited from earlier work
[3] = tested on: SMA-like mice; test: Life span of severe SMA-like mice; type: in vivo; conditions: oral treatment
[4] = tested on: AKT; conditions: SMA mice, oral treatment
[5] = tested on: SMA-like mice; test: Body weight of SMA-like mice; type: in vivo; conditions: oral treatment
Experimental: The knockout-transgenic SMA-like mice (Smn^−/−, SMN2^+/+) were purchased from the Jackson Laboratory (Bar Harbor, Me.) and genotyped as previously described^15. […] The control mice were heterozygous knock-out for Smn with the human SMN2 transgene (Smn^−/+, to SMN2^+/+). […] These mice were compared to control and SMA-like mice either injected from P1 with 0.5 μl/g of 0.9% NaCl 1% DMSO dyed in blue Evans or orally treated with 2 μl/g of 0.9% NaCl 1% DMSO. Body weight and life span recordings were performed every day until the death of the animal. The animals were considered as dead when mice were no longer able to stand up 20 sec after having been placed on their sides.

[6] = tested on: SMN protein; type: in vivo, mice; conditions: oral treatment

CN[C@H](CC(=O)O)C(=O)O [NMDA, N-methyl-D-aspartic Acid]
ratio of CREB and Elk-1 binding on the CRE sites [1]: completely reversed
total amount of SMN transcripts in the SMA spinal cord [2]: increased

Cn1cnc2c(F)c(Nc3ccc(Br)cc3Cl)c(C(=O)NOCCO)cc21 [Selumetinib, 6-(4-bromo-2-chloroanilino)-7-fluoro-N-(2-hydroxyethoxy)-3-methylbenzimidazole-5-carboxamide]
life span of SMA mice [3]: remarkable increase
AKT activation [4]: activation
body weight [5]: progressive gain
SMN expression in the spinal cord of SMA mice [6]: activation

— US9833439B2, “ERK inhibitors for use in treating spinal muscular atrophy” (UNIVERSITE PARIS DESCARTES, priority 2011, dated 2017)
